39 compounds from US9266832B2, “Compounds for the treatment of neurodegenerative diseases” (Katholieke Universiteit Levun, priority 2010, dated 2016) can be followed below.

The test has as its system M17-TAU P301L cells. The test is described as follows: Tau-induced toxicity experiment: LDH leakage of retinoic acid incubated M17-TAU P301L cells. In kind it is cell-based. To be noted: Homo sapiens, Neuroblastoma cell, 168 h; reduction of LDH activity of retinoic acid incubated M17-TAU P301L neuroblastoma cells, 7 days. An excerpt:
A TAU expression plasmid was constructed by sub-cloning the cDNA of human TAU-P301L (encoding for TAU with proline 301 substituted by a leucine residue) into mammalian expression vector pcDNA3.1 resulting in plasmid pcDNA3.1-TAU P301L. Plasmids pcDNA3.1 and pcDNA3.1-TAU P301L were transfected to human neuroblastoma cells ([…]; ATCC No. CRL-2267) and independent clonal lines with the plasmids stably integrated into the genome were selected. […] Expression of the TAU P301L genes in the cell lines was confirmed by Western analysis.
In degenerated or dead cells lactate dehydrogenase (LDH) is leaked out of the cells into the extracellular environment due to a loss of plasma-membrane integrity. This principle was used to determine cytotoxicity by quantifying the level of leaked LDH into the growth medium.
The detailed method for determining TAU cytotoxicity was as follows: From appropriate precultures of M17-3.1 and M17-TAU(P301L) cells were seeded at 2500 cells/cm2 in Optimem Reduced Serum without phenol red (Gibco, Cat. 31985-047) supplemented with 1% fetal calf serum, 1 mM sodium pyruvate, 1× non-essential amino acids, 500 μg/ml G418 0.5× antibiotic/antimycotic. After 3 h of incubation at 37° C./5% CO2 1 volume of Optimem Reduced Serum (same as described above; except without fetal calf serum) supplemented with 2.5 μM retinoic acid (RA) was added. The cells were further incubated for 7 days. Subsequently, LDH activity was determined using Promega Cytotox 96 Non-Radioactive cytotoxicity assay, (Cat. G1780) according the supplier's instructions.
The M17-TAU P301L cell line made it possible to assess the ability of novel compounds to counteract TAU cytotoxicity. […] These measurements were used to calculate EC50 values of table 2.
In turn, `Cc1ccc(Cc2cccc(C(=O)NCCc3c[nH]c4ccc(Cl)cc34)c2)cc1` [Cpd034, N-(2-(5-chloro-1H-indol-3-yl)ethyl)-3-(4-methylbenzyl)benzamide] yielded an EC50 of 62 nM. That is a double-digit nanomolar value. With `Cc1cccc(Cc2cccc(C(=O)NCCc3c[nH]c4ccc(Cl)cc34)c2)c1` [Cpd035, N-(2-(5-chloro-1H-indol-3-yl)ethyl)-3-(3-methylbenzyl)benzamide] the figure was 60 nM; with `Cc1cccc(Cc2ccc(C(=O)NCCc3c[nH]c4ccc(Cl)cc34)cc2)c1` [Cpd036, N-(2-(5-chloro-1H-indol-3-yl)ethyl)-4-(3-methylbenzyl)benzamide], 40 nM; with `N#Cc1ccc(Cc2cccc(C(=O)NCCc3c[nH]c4ccc(Cl)cc34)c2)cc1` [Cpd037, N-(2-(5-chloro-1H-indol-3-yl)ethyl)-3-(4-cyanobenzyl)benzamide], 32 nM. `N#Cc1cccc(Cc2cccc(C(=O)NCCc3c[nH]c4ccc(Cl)cc34)c2)c1` [Cpd038, N-(2-(5-chloro-1H-indol-3-yl)ethyl)-3-(3-cyanobenzyl)benzamide] returned a half-maximal effective concentration (EC50) of 31 nM. The EC50 values of the last two compounds are within 1.5-fold of each other. `O=C(NCCc1c[nH]c2ccc(Cl)cc12)c1ccc(Cc2ccc(C(F)(F)F)cc2)cc1` [Cpd039, N-(2-(5-chloro-1H-indol-3-yl)ethyl)-4-(4-(trifluoromethyl)benzyl)benzamide]: a half-maximal response (EC50) required 22 nM. The EC50 values of the last two compounds are within 1.5-fold of each other. With `O=C(NCCc1c[nH]c2ccc(Cl)cc12)c1cccc(Cc2ccc(C(F)(F)F)cc2)c1` [Cpd040, N-(2-(5-chloro-1H-indol-3-yl)ethyl)-3-(4-(trifluoromethyl)benzyl)benzamide] the figure was 103 nM. Under `O=C(NCCc1c[nH]c2ccc(Cl)cc12)c1ccc(Cc2ccccc2C(F)(F)F)cc1` [Cpd041, N-(2-(5-chloro-1H-indol-3-yl)ethyl)-4-(2-(trifluoromethyl)benzyl)benzamide] stands 80 nM; under `O=C(NCCc1c[nH]c2ccc(Cl)cc12)c1ccc(Cc2cccc(C(F)(F)F)c2)cc1` [Cpd042, N-(2-(5-chloro-1H-indol-3-yl)ethyl)-4-(3-(trifluoromethyl)benzyl)benzamide], 31 nM; under `O=C(NCCc1c[nH]c2ccc(Cl)cc12)c1cccc(Cc2cccc(C(F)(F)F)c2)c1` [Cpd044, N-(2-(5-chloro-1H-indol-3-yl)ethyl)-3-(3-(trifluoromethyl)benzyl)benzamide], 55 nM.

For the compound `O=C(NCCc1c[nH]c2ccc(Cl)cc12)c1ccc(Cc2ccc(Cl)cc2)cc1` [Cpd045, N-(2-(5-chloro-1H-indol-3-yl)ethyl)-4-(4-chlorobenzyl)benzamide], a half-maximal response (EC50) required 22 nM.

Compound `O=C(NCCc1c[nH]c2ccc(Cl)cc12)c1ccc(Cc2cccc(Cl)c2)cc1` [Cpd046, N-(2-(5-chloro-1H-indol-3-yl)ethyl)-4-(3-chlorobenzyl)benzamide] returned a half-maximal effective concentration (EC50) of 7 nM. Compound `O=C(NCCc1c[nH]c2ccc(Cl)cc12)c1ccc(Cc2ccccc2Cl)cc1` [Cpd047, N-(2-(5-chloro-1H-indol-3-yl)ethyl)-4-(2-chlorobenzyl)benzamide] came in with an EC50 of 65 nM. With `O=C(NCCc1c[nH]c2ccc(Cl)cc12)c1ccc(Cc2cccc(F)c2)cc1` [Cpd048, N-(2-(5-chloro-1H-indol-3-yl)ethyl)-4-(3-fluorobenzyl)benzamide] the figure was 13 nM; with `O=C(NCCc1c[nH]c2ccc(Cl)cc12)c1ccc(Cc2ccccc2F)cc1` [Cpd049, N-(2-(5-chloro-1H-indol-3-yl)ethyl)-4-(2-fluorobenzyl)benzamide], 31 nM.

Consider `O=C(NCCc1c[nH]c2ccc(Cl)cc12)c1cccc(Cc2ccc(Cl)cc2)c1` [Cpd050, N-(2-(5-chloro-1H-indol-3-yl)ethyl)-3-(4-chlorobenzyl)benzamide], for which the midpoint of the response, the EC50, lay at 50 nM. `O=C(NCCc1c[nH]c2ccc(Cl)cc12)c1cccc(Cc2ccc(F)cc2)c1` [Cpd052, N-(2-(5-chloro-1H-indol-3-yl)ethyl)-3-(4-fluorobenzyl)benzamide] showed an EC50 of 20 nM. With `O=C(NCCc1c[nH]c2ccc(Cl)cc12)c1cccc(Cc2cccc(F)c2)c1` [Cpd053, N-(2-(5-chloro-1H-indol-3-yl)ethyl)-3-(3-fluorobenzyl)benzamide] the figure was 17 nM; with `O=C(NCCc1c[nH]c2ccc(Cl)cc12)c1cccc(Cc2ccccc2F)c1` [Cpd054, N-(2-(5-chloro-1H-indol-3-yl)ethyl)-3-(2-fluorobenzyl)benzamide], 42 nM. Under `O=C(NCCc1c[nH]c2ccc(Cl)cc12)c1cccc(Cc2cccc(Cl)c2)c1` [Cpd055, N-(2-(5-chloro-1H-indol-3-yl)ethyl)-3-(3-chlorobenzyl)benzamide] stands 36 nM. `COc1ccc(Cc2ccc(C(=O)NCCc3c[nH]c4ccc(Cl)cc34)cc2)cc1` [Cpd056, N-(2-(5-chloro-1H-indol-3-yl)ethyl)-4-(4-methoxybenzyl)benzamide] gave an EC50 of 70 nM.

With `COc1ccc(Cc2cccc(C(=O)NCCc3c[nH]c4ccc(Cl)cc34)c2)cc1` [Cpd057, N-(2-(5-chloro-1H-indol-3-yl)ethyl)-3-(4-methoxybenzyl)benzamide], a half-maximal response (EC50) required 147 nM. Under `COc1cccc(Cc2cccc(C(=O)NCCc3c[nH]c4ccc(Cl)cc34)c2)c1` [Cpd058, N-(2-(5-chloro-1H-indol-3-yl)ethyl)-3-(3-methoxybenzyl)benzamide] stands 125 nM; under `N#Cc1ccccc1Cc1ccc(C(=O)NCCc2c[nH]c3ccc(Cl)cc23)cc1` [Cpd059, N-(2-(5-chloro-1H-indol-3-yl)ethyl)-4-(2-cyanobenzyl)benzamide], 68 nM; under `N#Cc1ccccc1Cc1cccc(C(=O)NCCc2c[nH]c3ccc(Cl)cc23)c1` [Cpd060, N-(2-(5-chloro-1H-indol-3-yl)ethyl)-3-(2-cyanobenzyl)benzamide], 116 nM.

With `O=C(NCCc1c[nH]c2ccc(Cl)cc12)c1ccc(Cc2ccc(F)cc2)cc1` [Cpd061, N-(2-(5-chloro-1H-indol-3-yl)ethyl)-4-(4-fluorobenzyl)benzamide], it took 86 nM to reach a half-maximal effect (EC50). With `Cc1cccc(C)c1Cc1ccc(C(=O)NCCc2c[nH]c3ccc(Cl)cc23)cc1` [Cpd062, N-(2-(5-chloro-1H-indol-3-yl)ethyl)-4-(2,6-dimethylbenzyl)benzamide] the figure was 398 nM. In turn, `N#Cc1cccc(Nc2cccc(C(=O)NCCc3c[nH]c4ccc(Cl)cc34)c2)c1` [Cpd064, N-(2-(5-chloro-1H-indol-3-yl)ethyl)-3-(3-cyanophenylamino)benzamide] showed an EC50 of 122 nM.

In turn, `O=C(NCCc1c[nH]c2ccc(Cl)cc12)c1cccc(Cc2cc(F)cc(F)c2)c1` [Cpd065, N-(2-(5-chloro-1H-indol-3-yl)ethyl)-3-(3,5-difluorobenzyl)benzamide] came in with an EC50 of 174 nM. Under `COc1cccc(Cc2cccc(C(=O)NCCc3c[nH]c4ccc(Cl)cc34)c2)c1F` [Cpd066, N-(2-(5-chloro-1H-indol-3-yl)ethyl)-3-(2-fluoro-3-methoxybenzyl)benzamide] stands 386 nM; under `O=C(NCCc1c[nH]c2ccc(Cl)cc12)c1ccc(Cc2cc(F)cc(F)c2)cc1` [Cpd067, N-(2-(5-chloro-1H-indol-3-yl)ethyl)-4-(3,5-difluorobenzyl)benzamide], 111 nM. As to `COc1cccc(Cc2ccc(C(=O)NCCc3c[nH]c4ccc(Cl)cc34)cc2)c1F` [Cpd068, N-(2-(5-chloro-1H-indol-3-yl)ethyl)-4-(2-fluoro-3-methoxybenzyl)benzamide], the 50% effective concentration (EC50) worked out at 148 nM. With `O=C(NCCc1c[nH]c2ccc(Cl)cc12)c1cccc(Cc2cncc(F)c2)c1` [Cpd069, N-(2-(5-chloro-1H-indol-3-yl)ethyl)-3-((5-fluoropyridin-3-yl)methyl)benzamide] the figure was 90 nM; with `O=C(NCc1c[nH]c2ccc(Cl)cc12)c1ccc(Cc2cccc(F)c2)cc1` [Cpd071, N-((5-chloro-1H-indol-3-yl)methyl)-4-(3-fluorobenzyl)benzamide], 277 nM. Under `N#Cc1cccc(Cc2ccc(C(=O)NCc3c[nH]c4ccc(Cl)cc34)cc2)c1` [Cpd072, N-((5-chloro-1H-indol-3-yl)methyl)-4-(3-cyanobenzyl)benzamide] stands 132 nM.

For `O=C(NCc1c[nH]c2ccc(Cl)cc12)c1ccc(Cc2cc(F)cc(F)c2)cc1` [Cpd073, N-((5-chloro-1H-indol-3-yl)methyl)-4-(3,5-difluorobenzyl)benzamide], the 50% effective concentration (EC50) stood at 242 nM. This EC50 is about 1.8-fold higher than that of the compound before. `O=C(NCCc1c[nH]c2ccc(Cl)cc12)c1cccc(Cc2cccs2)c1` [Cpd075, N-(2-(5-chloro-1H-indol-3-yl)ethyl)-3-(thiophen-2-ylmethyl)benzamide] displayed an EC50 of 30 nM. Compared with the last compound, the EC50 is about 8.1-fold lower. Under `O=C(NCCc1c[nH]c2ccc(Cl)cc12)c1cccc(Cc2ccsc2)c1` [Cpd076, N-(2-(5-chloro-1H-indol-3-yl)ethyl)-3-(thiophen-3-ylmethyl)benzamide] stands 29 nM; under `O=C(NCCc1c[nH]c2ccc(Cl)cc12)c1cccc(Cc2ccco2)c1` [Cpd077, N-(2-(5-chloro-1H-indol-3-yl)ethyl)-3-(furan-2-ylmethyl)benzamide], 17 nM.
